Earlier results, collected in US20230416692A1 (BOARD OF REGENTS, THE UNIVERSITY OF TEXAS SYSTEM, priority 2020, published 2023).

Test system: COVID-19
Conditions: human, in vivo; cited from earlier work

SMILES	fatality rate among hospitalized patients (in words)
CC[C@H]1OC(=O)[C@H](C)[C@@H](O[C@H]2C[C@@](C)(OC)[C@@H](O)[C@H](C)O2)[C@H](C)[C@@H](O[C@@H]2O[C@H](C)C[C@H](N(C)C)[C@H]2O)[C@](C)(O)C[C@@H](C)CN(C)[C@H](C)[C@@H](O)[C@]1(C)O [azithromycin]	not associated with significant differences in fatality rate
CCN(CCO)CCCC(C)Nc1ccnc2cc(Cl)ccc12 (centres unmarked) [hydroxychloroquine]	not associated with significant differences in fatality rate
